Measured values published in the supplement of paper PMC10949913.

Experiments:
Assay in all cases: area under concentration-response curve (viability) (AUC (a.u.)); higher = less active
Details in all cases: 48 h
NCI-H295R = tested on: NCI-H295R
How it was run: (§1)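 Luminescence from CellTiter-Glo, read after 48 h, measured three adrenocortical carcinoma cell lines treated in 1,536-well plates with library compounds at 11 concentrations. Values were normalised per plate to vehicle and empty-well controls. The AC50 and area under the curve come from fitted concentration-response curves in inhibitory or non-responding classes only.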

CU-ACC2 = tested on: CU-ACC2
How it was run: as §1

CU-ACC1 = tested on: CU-ACC1
How it was run: as §1

SMILES	area under concentration-response curve (NCI-H295R)	area under concentration-response curve (CU-ACC2)	area under concentration-response curve (CU-ACC1)
C[C@@H](O)[C@@H]1NC(=O)[C@H](CCCCN)NC(=O)[C@@H](Cc2c[nH]c3ccccc23)NC(=O)[C@H](Cc2ccccc2)NC(=O)[C@@H](NC(=O)[C@H](N)Cc2ccccc2)CSSC[C@@H](C(=O)N[C@H](CO)[C@@H](C)O)NC1=O	612	648	–
Nc1cccc([S+](=O)([O-])N2CCCN([S+](=O)([O-])c3ccc4c(c3)OCCO4)CC2)c1	546	634	–
NC(=O)c1ccc(N(C(N)=O)c2c(F)cccc2F)nc1-c1ccc(F)cc1F	471	440	–
O=C(NC[C@H]1CN(c2ccc(N3CCOCC3=O)cc2)C(=O)O1)c1ccc(Cl)s1	557	605	–
Cc1c(-c2c(-c3ccc(F)o3)sc3ncnc(O[C@@H](Cc4ccccc4OCc4ccnn4CC(F)(F)F)C(=O)O)c23)ccc(OCCN2CCN(C)CC2)c1Cl	529	600	–
Cn1c(-c2ccccc2C(F)(F)F)nnc1C12CCC(c3noc(C4CC(F)(F)C4)n3)(CC1)CC2	546	594	–
CNC(=O)c1ccc(N2C(=S)N(c3ccc(C#N)c(C(F)(F)F)c3)C(=O)C2(C)C)cc1F	499	559	–
CC[C@@](C)(Nc1ccnc(-c2c[nH]c3ncccc23)n1)C(=O)NCC(F)(F)F	539	589	–
Cc1cnc(-c2ccccc2C(C)C)nc1NCc1ccc(-n2ccnn2)cc1	563	614	–
CN1C(=O)\C(=C/C2=C1N=C(NC3CCOCC3)N=C2)OC4=C(F)C=C(F)C=C4	565	611	–
NC(=O)c1cccnc1	569	608	–
OCc1ccccc1O[C@@H]1O[C@H](CO)[C@@H](O)[C@H](O)[C@H]1O	563	616	–
NC[C@H](O)c1ccc(O)c(O)c1	599	636	–
O=C(NC[C@H](O)CN1CCc2ccccc2C1)c1cc(NC2COC2)ncn1	429	367	–
O=C(c1ccc(F)cc1)N1CCC[C@H](c2nc(-c3ccc(F)cc3)no2)C1	576	624	–
C[C@@H]1Cc2c([nH]c3ccccc23)[C@@H](c2c(F)cc(/C=C/C(=O)O)cc2F)N1CC(C)(C)F	593	615	–
CCCC[N+]1(C)[C@@H]2CC(OC(=O)[C@H](CO)c3ccccc3)C[C@H]1[C@@H]1O[C@@H]12 (some centres undefined)	568	630	–
O=C(COCC(=O)N1CCN(C(c2ccccc2)c2ccccc2)CC1)Nc1ccc(Cl)cc1C(=O)O	538	529	–
OC(=O)C/1=C/C(=O)NC(=O)N1	529	530	–

SMILES	area under concentration-response curve (NCI-H295R)	area under concentration-response curve (CU-ACC2)	area under concentration-response curve (CU-ACC1)
COc1ccc(C(=O)CC(=O)c2ccc(C(C)(C)C)cc2)cc1	543	595	–
C[S+](=O)([O-])c1ccc(-c2cnc(N)c(C(=O)Nc3ccccc3)n2)cc1	534	473	–
CC(NC(C)(C)C)C(=O)c1cccc(Cl)c1 (centres undefined)	509	526	–
NC/1=N/C(=O)N/C=C1F	595	633	–
CCCCOc1ccc(CC(=O)NO)cc1	573	631	–
Cc1cc(-c2cc(OC(=O)c3ccccc3)ccc2Cl)cc2nnc(Nc3ccc(OCCN4CCCC4)cc3)nc12	612	664	–
CC/1=N/C2=CC=CC(=C2C(=O)N1C3CCC(=O)NC3=O)N (centres undefined)	575	635	–
Cc1ccc(NC(=O)[C@H]2CCCN(C(=O)c3c(C)cccc3F)[C@H]2c2ccc(NC3CCCC3)cc2)cc1C(F)(F)F	521	561	–
Cc1cc(N2CCOCC2)ccc1Nc1nc(NC2CCCCC2)c2nc[nH]c2n1	539	587	–
C/C(=N\NC(=O)c1cccc([S+](=O)([O-])N2CCOCC2)c1)c1cc(Cl)ccc1O	597	640	–
Cn1ccc2cc3c(cc21)CCN3C(=O)Nc1cccnc1	–	490	455
CN(C)C(=N)NC(=N)N	–	572	550
CC(=O)OCC(=O)[C@@]1(O)CC[C@H]2[C@@H]3CCC/4=C/C(=O)CC[C@]4(C)[C@H]3C(=O)C[C@]12C	–	617	531
C[C@H]1CN(C[C@@H](C)O1)CC(=O)NC2=CC=C3SC4=C(CC3=C2)C=CC=C4\C5=C\C(=O)\C=C(/O5)N6CCOCC6	–	428	439
CC(C)N(C[C@H]1O[C@@H](n2cnc3c(N)ncnc32)[C@H](O)[C@@H]1O)[C@H]1C[C@@H](CCc2nc3cc(C(C)(C)C)ccc3[nH]2)C1	–	598	543
CCCCC[C@H](O)/C=C/[C@H]1[C@H](O)CC(=O)[C@@H]1CCCCCCC(=O)O	–	612	402
CNC(=O)c1ccccc1Nc1nc(Nc2ccc3c(c2OC)CCC[C@@H](N2CCN(CCO)CC2)C3)ncc1Cl	–	644	548
CC[C@@]1([C@@H]2O[C@@H]([C@H]3O[C@@](O)(CO)[C@H](C)C[C@@H]3C)C[C@@H]2C)CC[C@H]([C@]2(C)CC[C@]3(C[C@H](O)[C@@H](C)[C@@H]([C@@H](C)[C@@H](OC)[C@H](C)C(=O)[O-])O3)O2)O1	–	410	427
CC1(N)CCN(c2cccnc2NC(=O)c2nc(-c3ncccc3C(F)(F)F)cnc2N)CC1	–	509	430

SMILES	area under concentration-response curve (NCI-H295R)	area under concentration-response curve (CU-ACC2)	area under concentration-response curve (CU-ACC1)
CN(Cc1cc(Br)cc(Br)c1N)C1CCCCC1	–	526	383
CC(C)Cc1ccc(C(C)C(=O)O)cc1 (centres undefined)	–	583	539
CN1CCN(CC1)C2=CC=C(NC3=NC=C4\C=C(\C#N)C(=O)N(C5CCCC5)C4=N3)C=C2	–	588	548
CN1CCC(=C2c3ccccc3CC(=O)c3sccc32)CC1	–	537	557
COc1ccc2[nH]c([S+]([O-])Cc3ncc(C)c(OC)c3C)nc2n1 (centres undefined)	–	637	542
COc1ncnc(N[S+](=O)([O-])c2ccc(N)cc2)c1OC	–	604	593
CCCCc1ccc(N[S+](=O)([O-])c2ccc(C)c(C(=O)N3CCN(c4cccc(C)c4C)CC3)c2)cc1	–	634	527
NC\1=N\C(=O)N(\C=C1)[C@@H]2O[C@H](CO)[C@@H](O)[C@H]2O	–	610	582
CC(C)NCCCn1c(Sc2cc(Cl)cc(Cl)c2)nc2c(N)ncnc21	–	572	511
COC1=C(CN(C)C)C=C(OC)C(=C1)C/2=C/N(C)C(=O)C3=C2C=CN=C3	–	597	516
COc1cc(/C=C(\C#N)C(=O)Nc2nnc(C(F)(F)F)s2)ccc1OCc1ccc(C(F)(F)F)cc1C(F)(F)F	–	488	450
CC(C)(C)NC(=O)[C@H]1CC[C@H]2[C@@H]3CC[C@H]4NC(=O)\C=C/[C@]4(C)[C@H]3CC[C@]12C	–	622	618
CNC(=O)c1ccc(N2C(=S)N(c3cnc(C#N)c(C(F)(F)F)c3)C(=O)C23CCC3)cc1F	–	565	505
CO[C@@H]1COCC[C@@H]1N[C@@H]1CC[C@@](C(=O)N2CCc3ncc(C(F)(F)F)cc3C2)(C(C)C)C1	–	640	591
COc1ccccc1C(=O)Nc1cc2c(cc1N1CCCC1)n(C)c(=O)n2C	–	602	537
CCC(=O)OCC(=O)C1(OC(=O)CC)C(C)CC2C3CC\C4=C\C(=O)\C=C/C4(C)C3(F)C(O)CC12C (centres undefined)	–	613	528
O=C(Nc1ccc(OC(F)(F)F)cc1)c1sccc1NCc1ccnc2ccccc12	–	639	525
C=CC(=O)N1C[C@H](Nc2ncnc3[nH]ccc23)CC[C@@H]1C	–	622	587
Cn1cc(C[C@@H](N)C(=O)O)c2ccccc21	–	658	619
